This passage reports Ki results from ChEMBL document CHEMBL1125576, “alpha-Keto amide inhibitors of aminopeptidases” (J Med Chem, 1992).

The target in test [1] is Aminopeptidase B (Homo sapiens, UniProt Q9H4A4). Put plainly: Compound was tested for binding affinity towards arginyl aminopeptidase.
For test [2], the target named is T1, Aminopeptidase N (Homo sapiens, UniProt P15144). Kind of test: Compound was tested for binding affinity towards microsomal aminopeptidase; Kii was reported.
Test [3] deals with T1, Aminopeptidase N. Put plainly: Compound was tested for binding affinity towards microsomal aminopeptidase; Kis was reported.
For test [4], the target named is T1, Aminopeptidase N. Put plainly: Compound was tested for binding affinity towards microsomal aminopeptidase.

Structures are written as SMILES.

T1 sequence (P15144 whole entry): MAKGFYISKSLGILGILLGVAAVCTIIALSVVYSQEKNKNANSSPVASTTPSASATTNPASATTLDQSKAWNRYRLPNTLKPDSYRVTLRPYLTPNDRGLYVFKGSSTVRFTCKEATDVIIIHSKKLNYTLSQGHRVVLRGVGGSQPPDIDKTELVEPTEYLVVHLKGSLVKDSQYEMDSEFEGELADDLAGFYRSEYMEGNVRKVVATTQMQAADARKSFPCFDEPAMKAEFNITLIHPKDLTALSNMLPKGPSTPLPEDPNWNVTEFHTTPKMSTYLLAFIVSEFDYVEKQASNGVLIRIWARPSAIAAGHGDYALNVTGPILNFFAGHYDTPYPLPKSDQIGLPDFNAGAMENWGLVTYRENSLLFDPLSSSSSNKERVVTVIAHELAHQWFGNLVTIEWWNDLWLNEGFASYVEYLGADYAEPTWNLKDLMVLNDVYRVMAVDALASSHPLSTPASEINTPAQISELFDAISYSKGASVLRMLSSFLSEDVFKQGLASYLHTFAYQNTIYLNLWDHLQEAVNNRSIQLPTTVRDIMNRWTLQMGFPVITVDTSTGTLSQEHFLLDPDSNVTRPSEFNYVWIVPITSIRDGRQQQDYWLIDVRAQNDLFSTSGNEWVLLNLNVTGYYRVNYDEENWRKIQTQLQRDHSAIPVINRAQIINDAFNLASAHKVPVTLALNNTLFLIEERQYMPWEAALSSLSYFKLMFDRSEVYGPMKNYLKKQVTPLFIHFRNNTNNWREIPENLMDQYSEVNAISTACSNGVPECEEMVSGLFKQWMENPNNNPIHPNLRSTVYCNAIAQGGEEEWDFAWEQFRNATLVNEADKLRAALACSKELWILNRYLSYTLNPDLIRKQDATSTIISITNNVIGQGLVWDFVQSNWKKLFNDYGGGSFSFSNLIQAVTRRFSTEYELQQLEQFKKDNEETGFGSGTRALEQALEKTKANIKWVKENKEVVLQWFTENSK
Aminopeptidase B, sequence (Q9H4A4 whole entry): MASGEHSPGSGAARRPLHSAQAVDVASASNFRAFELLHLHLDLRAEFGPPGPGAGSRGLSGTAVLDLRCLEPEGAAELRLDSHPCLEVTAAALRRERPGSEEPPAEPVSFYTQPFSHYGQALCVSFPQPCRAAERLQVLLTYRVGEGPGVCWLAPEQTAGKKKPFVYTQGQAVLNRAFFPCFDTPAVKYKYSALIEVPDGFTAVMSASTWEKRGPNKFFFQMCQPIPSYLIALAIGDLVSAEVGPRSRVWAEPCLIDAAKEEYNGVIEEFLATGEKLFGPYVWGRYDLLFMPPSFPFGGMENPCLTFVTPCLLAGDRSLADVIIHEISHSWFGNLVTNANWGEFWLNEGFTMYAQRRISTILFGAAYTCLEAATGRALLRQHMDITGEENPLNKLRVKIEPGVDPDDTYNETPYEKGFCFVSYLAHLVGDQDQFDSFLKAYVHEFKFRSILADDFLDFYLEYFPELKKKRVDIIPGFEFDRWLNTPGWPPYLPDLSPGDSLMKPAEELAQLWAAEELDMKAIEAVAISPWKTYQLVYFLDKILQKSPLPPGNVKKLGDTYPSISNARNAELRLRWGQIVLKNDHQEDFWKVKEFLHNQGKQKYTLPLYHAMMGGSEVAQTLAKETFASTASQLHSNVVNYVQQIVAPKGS

What is called Ki is a dissociation constant, usually derived from enzyme kinetics or from competition with a known ligand. High values mean lower affinity, low ones higher affinity. For `CC(C)C[C@H](N)C(=O)CC(Cc1ccccc1)C(=O)O` (stereo partly drawn), the figures for the Ki in test [1], in test [2] and in test [3] were 0.17 µM, 260 µM and 79 µM, respectively.
Turning to `CC(C)CCNC(=O)C(=O)[C@H](N)CC(C)C`, the Ki in test [1] amounted to 6.5 µM; in test [4] it was 18 µM.
In the same order, the values of `CC(C)CCNC(=O)C(=O)[C@@H](N)CC(C)C` are 3.2 µM and 10.5 µM.
As for `CC(C)CCNC(=O)[C@@H](O)[C@H](N)CC(C)C`, the Ki in test [1] was greater than 300 µM; in test [4] it was 24 µM.
In the same order, the values of `CC(C)CCNC(=O)C(=O)C(N)Cc1ccccc1` (stereo not drawn) are 1.5 µM and 2.5 µM.
In the same order, the values of `CC(C)CCNC(=O)[C@@H](O)[C@H](N)Cc1ccccc1` are 39 µM and 20 µM.
Consider `CC(C)C[C@H](N)C(=O)CC(C)C(=O)O` (stereo partly drawn), for which the inhibition constant Ki is 130 µM in test [1], 940 µM in test [2] and 660 µM in test [3].
For the compound `CC(=O)[C@@H](N)CC(C)C`, the Ki in test [1] was greater than 1000 µM; in test [4], 430 µM.
